Reference: patent publication US20260042764A1, “COMPOSITIONS AND METHODS FOR INHIBITION OF KRAS” (TheRas, Inc., priority 2022, published 2026)

Experiments:
[1] = target: T1, Avi-KRAS G12R (1-169) GppNHp/RAF1 RBD-3xFLAG (52-151) (Homo sapiens, UniProt P01116, G12R); assay: Raf1-KRAS G12R-GppNHP disruption HTRF assay (Biological Example 1); format: binding
T1 construct: Avi-KRAS G12R (1-169)
In short: (§1)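 HTRF PPI disruption; buffer 50 mM Tris pH 7.5, 100 mM NaCl, 5 mM MgCl2, 0.1% BSA, 0.01% Tween, 10% DMSO. Protein mix 1 h RT shaking, reagent mix 1 h RT shaking. Data as % activity vs DMSO (100%).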

[2] = target: T2, Avi-KRAS G12D (1-169) GppNHp/RAF1 RBD-3xFLAG (52-151) (Homo sapiens, UniProt P01116, G12D); assay: Raf1-KRAS G12D-GppNHP disruption HTRF assay (Biological Example 1); format: binding
T2 construct: Avi-KRAS G12D (1-169)
In short: as §1

GP2d cells (KRAS G12D) = assay: Cell-based pERK HTRF assay in GP2d cell (Biological Example 2); conditions: GP2d (KRAS G12D) cells, pERK HTRF
In short: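 HTRF read-out of pERK (excitation 320 nm, emission 615 nm) after lysates sat 4–24 h at room temperature with Eu cryptate and d2 antibodies.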

SW620 cells (KRAS G12V) = assay: Cell-based pERK HTRF assay in SW620 cell (Biological Example 4); conditions: pERK HTRF
In short: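 In SW620 cells grown in RPMI with 10% FBS, a 4 h compound treatment (0.25% DMSO, 9-point curve from 1 μM) preceded lysis. Phospho-ERK levels were then read by time-resolved FRET at 615 nm emission.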

[3] = target: T3, Avi-KRAS WT (1-169) GppNHp/RAF1 RBD-3xFLAG (52-151) (Homo sapiens, UniProt P01116); assay: Raf1-KRAS WT-GppNHP disruption HTRF assay (Biological Example 1); format: binding
T3 construct: Avi-KRAS WT (1-169)
In short: as §1

[4] = target: T4, Avi-KRAS G12V (1-169) GppNHp/RAF1 RBD-3xFLAG (52-151) (Homo sapiens, UniProt P01116, G12V); assay: Raf1-KRAS G12V-GppNHP disruption HTRF assay (Biological Example 1); format: binding
T4 construct: Avi-KRAS G12V (1-169)
In short: as §1

[5] = KRAS G12R, GppNHp-loaded, class symbols
[6] = KRAS G12D, GppNHp-loaded, class symbols
[7] = Homo sapiens, SW-620, SW620 (KRAS G12V) cells, class symbols
[8] = KRAS WT, GppNHp-loaded, class symbols
[9] = KRAS G12V, GppNHp-loaded, class symbols
[10] = KRAS G12R, GppNHp-loaded, Table 11
[11] = KRAS G12D, GppNHp-loaded, Table 11
[12] = Homo sapiens, SW-620, SW620 (KRAS G12V) cells
[13] = KRAS WT, GppNHp-loaded, Table 11
[14] = KRAS G12V, GppNHp-loaded, Table 11

T1 sequence (P01116 1-169 isoform P01116-2 G12R): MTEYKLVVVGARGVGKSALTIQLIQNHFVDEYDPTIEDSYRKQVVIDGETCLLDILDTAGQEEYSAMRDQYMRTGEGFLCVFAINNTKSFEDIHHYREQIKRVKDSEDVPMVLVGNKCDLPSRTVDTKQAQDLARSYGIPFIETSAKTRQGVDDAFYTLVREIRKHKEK
T2 sequence (P01116 1-169 isoform P01116-2 G12D): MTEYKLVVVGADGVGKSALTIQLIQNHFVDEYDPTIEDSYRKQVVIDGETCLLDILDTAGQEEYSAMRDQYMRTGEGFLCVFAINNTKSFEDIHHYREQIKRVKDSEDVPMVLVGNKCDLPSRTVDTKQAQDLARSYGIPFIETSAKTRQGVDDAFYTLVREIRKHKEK
T4 sequence (P01116 1-169 isoform P01116-2 G12V): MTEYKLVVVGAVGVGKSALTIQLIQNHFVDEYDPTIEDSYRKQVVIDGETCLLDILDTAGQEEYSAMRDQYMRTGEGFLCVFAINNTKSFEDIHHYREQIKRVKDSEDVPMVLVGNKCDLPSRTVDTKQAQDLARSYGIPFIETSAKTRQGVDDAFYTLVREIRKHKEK
T3 sequence (P01116 1-169 isoform P01116-2): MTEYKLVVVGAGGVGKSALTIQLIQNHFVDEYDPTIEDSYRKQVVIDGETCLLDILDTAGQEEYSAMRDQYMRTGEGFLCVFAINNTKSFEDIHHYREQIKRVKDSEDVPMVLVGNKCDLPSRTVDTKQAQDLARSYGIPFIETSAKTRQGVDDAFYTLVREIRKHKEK

SMILES	IC50 [1, 5]	IC50 [2, 6]	IC50 (GP2d cells (KRAS G12D); GP2d, class symbols)	IC50 (SW620 cells (KRAS G12V); [7])	IC50 [3, 8]	IC50 [4, 9]	IC50 ([1]; KRAS G12R-GppNHp/RAF1 RBD HTRF)	IC50 ([2]; KRAS G12D-GppNHp/RAF1 RBD HTRF)	IC50 ([3]; KRAS WT-GppNHp/RAF1 RBD HTRF)	IC50 ([4]; KRAS G12V-GppNHp/RAF1 RBD HTRF)	IC50 (GP2d cells (KRAS G12D); GP2d)	IC50 (SW620 cells (KRAS G12V); [12])	also measured
CN(C)C(=O)CN(C)c1nc(OC[C@@]23CCCN2C[C@H](F)C3)nc2c(F)c(-c3ccc(F)c4sc(N)c(C#N)c34)c(C(F)(F)F)cc12 [Compound 208]	–	–	–	–	–	–	–	–	–	–	< 0.1 µM	0.1 to 1 µM	IC50 [1, 10]: 1 to 10 µM; IC50 [2, 11]: 0.1 to 1 µM; IC50 [3, 13]: 0.1 to 1 µM; IC50 [4, 14]: 0.1 to 1 µM
N#Cc1c(N)sc2c(F)ccc(-c3c(C(F)(F)F)cc4c(N5CCCC6(CC(O)C6)C5)nc(OC[C@@]56CCCN5C[C@H](F)C6)nc4c3F)c12 (stereo partly drawn) [Compound 231]	–	–	–	–	–	–	–	–	–	–	–	–	IC50 [1, 10]: 1 to 10 µM; IC50 [2, 11]: 1 to 10 µM; IC50 (GP2d cells (KRAS G12D)): 0.1 to 1 µM; IC50 (SW620 cells (KRAS G12V); SW620 (KRAS G12V) cells): 0.1 to 1 µM; IC50 [3, 13]: 1 to 10 µM; IC50 [4, 14]: > 10 µM
C[C@@H]1CN(c2nc(OC[C@@]34CCCN3C[C@H](F)C4)nc3c(F)c(-c4ccc(F)c5sc(N)c(C#N)c45)c(C(F)(F)F)cc23)Cc2cc(C(=O)N(C)C)nn21 [Compound 423]	–	–	–	–	–	–	0.1 to 1 µM	0.1 to 1 µM	0.1 to 1 µM	0.1 to 1 µM	< 0.1 µM	< 0.1 µM	–
N#Cc1c(N)sc2c(F)ccc(-c3c(C(F)(F)F)cc4c(N5CCO[C@H]6C[C@H]65)nc(OC[C@@]56CCCN5C[C@H](F)C6)nc4c3F)c12 [Compound 403]	–	–	–	–	–	–	0.1 to 1 µM	0.1 to 1 µM	0.1 to 1 µM	0.1 to 1 µM	< 0.1 µM	< 0.1 µM	–
N#Cc1c(N)sc2c(F)ccc(-c3c(C(F)(F)F)cc4c(N5CCC5)nc(OC[C@@]56CCCN5C[C@H](F)C6)nc4c3F)c12 [Compound 212]	–	–	–	–	–	–	–	–	–	–	< 0.1 µM	< 0.1 µM	IC50 [1, 10]: 0.1 to 1 µM; IC50 [2, 11]: 0.1 to 1 µM; IC50 [3, 13]: 0.1 to 1 µM; IC50 [4, 14]: 0.1 to 1 µM
C[C@H]1N(C(=O)C2CC2)CC[C@@]1(C)N(C)c1nc(OC[C@@]23CCCN2C[C@H](F)C3)nc2c(F)c(-c3ccc(F)c4sc(N)c(C#N)c34)c(C(F)(F)F)cc12 [Compound 344]	–	–	–	–	–	–	> 10 µM	1 to 10 µM	0.1 to 1 µM	1 to 10 µM	< 0.1 µM	0.1 to 1 µM	–
CN(c1nc(OC[C@@]23CCCN2C[C@H](F)C3)nc2c(F)c(-c3ccc(F)c4sc(N)c(C#N)c34)c(C(F)(F)F)cc12)C1CCCS(=O)(=O)C1 (stereo partly drawn) [Compound 341]	–	–	–	–	–	–	0.1 to 1 µM	0.1 to 1 µM	0.1 to 1 µM	1 to 10 µM	< 0.1 µM	0.1 to 1 µM	–
CNC(=O)CN(C)c1nc(OC[C@@]23CCCN2C[C@H](F)C3)nc2c(F)c(-c3ccc(F)c4sc(N)c(C#N)c34)c(C(F)(F)F)cc12 [Compound 209]	–	–	–	–	–	–	–	–	–	–	< 0.1 µM	0.1 to 1 µM	IC50 [1, 10]: 0.1 to 1 µM; IC50 [2, 11]: 0.1 to 1 µM; IC50 [3, 13]: 0.1 to 1 µM; IC50 [4, 14]: 0.1 to 1 µM
CN1CCN(c2nc(OC[C@@]34CCCN3C[C@H](F)C4)nc3c(F)c(-c4ccc(F)c5sc(N)c(C#N)c45)c(C(F)(F)F)cc23)CCS1(=O)=O [Compound 311]	–	–	–	–	–	–	> 10 µM	> 10 µM	> 10 µM	> 10 µM	> 1 µM	> 1 µM	–

Continued, in another order:

IC50 [1, 5]	IC50 [2, 6]	IC50 (GP2d cells (KRAS G12D); GP2d, class symbols)	IC50 (SW620 cells (KRAS G12V); [7])	IC50 [3, 8]	IC50 [4, 9]	IC50 ([1]; KRAS G12R-GppNHp/RAF1 RBD HTRF)	IC50 ([2]; KRAS G12D-GppNHp/RAF1 RBD HTRF)	IC50 ([3]; KRAS WT-GppNHp/RAF1 RBD HTRF)	IC50 ([4]; KRAS G12V-GppNHp/RAF1 RBD HTRF)	IC50 (GP2d cells (KRAS G12D); GP2d)	IC50 (SW620 cells (KRAS G12V); [12])	SMILES	also measured
< 0.1 µM	< 0.1 µM	< 0.1 µM	< 0.1 µM	< 0.1 µM	< 0.1 µM	–	–	–	–	–	–	CCN(c1nc(OC[C@@]23CCCN2C[C@H](F)C3)nc2c(F)c(-c3ccc(F)c4sc(N)c(C#N)c34)c(C(F)(F)F)cc12)[C@H]1CCN(C(=O)N(C)C2CC2)C1 (atropisomer, axis not shown) [Compound 583]	–
–	–	–	–	–	–	1 to 10 µM	1 to 10 µM	1 to 10 µM	1 to 10 µM	–	–	N#Cc1c(N)sc2c(F)ccc(-c3c(C(F)(F)F)cc4c(N5CCN6C(=O)OCC6C5)nc(OCC56CCCN5CC(F)C6)nc4c3F)c12 (stereo not drawn) [Compound 431]	IC50 (GP2d cells (KRAS G12D)): < 0.1 µM; IC50 (SW620 cells (KRAS G12V); SW620 (KRAS G12V) cells): < 0.1 µM
–	–	–	–	–	–	1 to 10 µM	1 to 10 µM	1 to 10 µM	1 to 10 µM	< 0.1 µM	0.1 to 1 µM	CCN(c1nc(OC[C@@]23CCCN2C[C@H](F)C3)nc2c(F)c(-c3ccc(F)c4sc(N)c(C#N)c34)c(C(F)(F)F)cc12)[C@H]1CC(=O)N(C(C)C)C1 [Compound 528]	–
< 0.1 µM	< 0.1 µM	< 0.1 µM	< 0.1 µM	< 0.1 µM	< 0.1 µM	–	–	–	–	–	–	CCN(c1nc(OC[C@@]23CCCN2C[C@H](F)C3)nc2c(F)c(-c3ccc(F)c4sc(N)c(C#N)c34)c(C(F)(F)F)cc12)[C@H]1CCN(C(=O)[C@@H]2CCCO2)C1 (atropisomer, axis not shown) [Compound 745]	–
< 0.1 µM	< 0.1 µM	< 0.1 µM	< 0.1 µM	< 0.1 µM	< 0.1 µM	–	–	–	–	–	–	CCN(c1nc(OC[C@@]23CCCN2C[C@H](F)C3)nc2c(F)c(-c3ccc(F)c4sc(N)c(C#N)c34)c(C(F)(F)F)cc12)[C@@H]1CCN(C(=O)[C@H]2CCO2)[C@@H]1C (atropisomer, axis not shown) [Compound 788]	–
0.1 to 1 µM	< 0.1 µM	< 0.1 µM	< 0.1 µM	0.1 to 1 µM	0.1 to 1 µM	–	–	–	–	–	–	CCN(c1nc(OC[C@@]23CCCN2C[C@H](F)C3)nc2c(F)c(-c3ccc(F)c4sc(N)c(C#N)c34)c(C(F)(F)F)cc12)[C@H]1CCN(C(=O)c2ncc(C)o2)C1 (atropisomer, axis not shown) [Compound 803]	–
< 0.1 µM	< 0.1 µM	< 0.1 µM	< 0.1 µM	< 0.1 µM	< 0.1 µM	–	–	–	–	–	–	CCN(c1nc(OC[C@@]23CCCN2C[C@H](F)C3)nc2c(F)c(-c3ccc(F)c4sc(N)c(C#N)c34)c(C(F)(F)F)cc12)[C@H]1CCN(C(=O)O[C@H]2CCOC2)C1 (atropisomer, axis not shown) [Compound 682]	–
< 0.1 µM	< 0.1 µM	< 0.1 µM	< 0.1 µM	0.1 to 1 µM	< 0.1 µM	–	–	–	–	–	–	CCN(c1nc(OC[C@@]23CCCN2C[C@H](F)C3)nc2c(F)c(-c3ccc(F)c4sc(N)c(C#N)c34)c(C(F)(F)F)cc12)[C@H]1CCN(C(=O)OC2CCC2)C1 (atropisomer, axis not shown) [Compound 802]	–
1 to 10 µM	0.1 to 1 µM	0.1 to 1 µM	0.1 to 1 µM	1 to 10 µM	1 to 10 µM	–	–	–	–	–	–	CCN(c1nc(OC[C@@]23CCCN2C[C@H](F)C3)nc2c(F)c(-c3ccc(F)c4sc(N)c(C#N)c34)c(C(F)(F)F)cc12)[C@H]1CCN(C(=O)N(C)C)[C@H]1C (atropisomer, axis not shown) [Compound 798]	–
–	–	–	–	–	–	0.1 to 1 µM	0.1 to 1 µM	0.1 to 1 µM	0.1 to 1 µM	< 0.1 µM	< 0.1 µM	N#Cc1c(N)sc2c(F)ccc(-c3c(C(F)(F)F)cc4c(N5CCc6nocc6C5)nc(OC[C@@]56CCCN5C[C@H](F)C6)nc4c3F)c12 [Compound 457]	–
0.1 to 1 µM	0.1 to 1 µM	< 0.1 µM	< 0.1 µM	0.1 to 1 µM	0.1 to 1 µM	–	–	–	–	–	–	CCN(c1nc(OC[C@@]23CCCN2C[C@H](F)C3)nc2c(F)c(-c3ccc(F)c4sc(N)c(C#N)c34)c(C(F)(F)F)cc12)[C@H]1C[C@@H](C)N(C(=O)[C@H](C)OC)C1 (atropisomer, axis not shown) [Compound 753]	–
–	–	–	–	–	–	0.1 to 1 µM	0.1 to 1 µM	0.1 to 1 µM	0.1 to 1 µM	< 0.1 µM	< 0.1 µM	CCN(c1nc(OC[C@@]23CCCN2C[C@H](F)C3)nc2c(F)c(-c3ccc(F)c4sc(N)c(C#N)c34)c(C(F)(F)F)cc12)[C@H]1C[C@@H](C)N(C(=O)N(C)C)C1 (atropisomer, axis not shown) [Compound 558]	–
0.1 to 1 µM	< 0.1 µM	< 0.1 µM	< 0.1 µM	0.1 to 1 µM	< 0.1 µM	–	–	–	–	–	–	CCN(c1nc(OC[C@@]23CCCN2C[C@H](F)C3)nc2c(F)c(-c3ccc(F)c4sc(N)c(C#N)c34)c(C(F)(F)F)cc12)[C@H]1C[C@H](COC)N(C(C)=O)C1 (atropisomer, axis not shown) [Compound 647]	–
